# In US20180360710A1, “Sodium Zinc Alginate Structurant And Methods For Making And Using the Same” (Colgate-Palmolive Company, priority 2015, published 2018):
Structure (SMILES),"Solubility (g/100 g H2O, 25° C.) (25° C.)",Calculated Soluble Zinc (at use level in formula),Total Zinc Conc. (at use level in formula)
"[Cl-].[Cl-].[Zn+2] [ZnCl2, zinc chloride]",408 g/100 g H2O,0.72%,0.72%
"[O]=[Zn] [ZnO, zinc oxide]",–,–,0.80%
